Reference: patent US6727244B2, “Mammalian metabolites of a tachykinin receptor antagonist” (Merck & Co., Inc., priority 2000, dated 2004)

Columns and labels:
[1] = biological target: T1, human NK1 receptor (Homo sapiens, UniProt P25103); assay: human NK1 receptor binding assay (125I-substance P, COS or CHO cells)
T1 construct: expressed in transfected cells
Protocol: To express the cloned human neurokinin-1 receptor (NKIR) transiently in COS, the cDNA for the human NKIR was cloned into the expression vector pCDM9 which was derived from pCDM8 (INVITROGEN) by inserting the ampicillin resistance gene (nucleotide 1973 to 2964 from BLUESCRIPT SK+) into the Sac II site. Transfection of 20 ug of the plasmid DNA into 10 million COS cells was achieved by electroporation in 800 ul of transfection buffer (135 mM NaCl, 1.2 mM CaCl2, 1.2 mM MgCl2, 2.4 mM K2HPO4, 0.6 mM KH2PO4, 10 mM glucose, 10 mM HEPES pH 7.4) at 260 V and 950 uF using the IBI GENEZAPPER (IBI, New Haven, Conn.). The cells were incubated in 10% fetal calf serum, 2 mM glutamine, 100U/ml penicillin-streptomycin, and 90% DMEM media (GIBCO, Grand Island, N.Y.) in 5% CO2 at 37° C. for three days before the binding assay.
To establish a stable cell line expressing the cloned human NK1R, the cDNA was subcloned into the vector pRcCMV (INVITROGEN). Transfection of 20 ug of the plasmid DNA into CHO cells was achieved by electroporation in 800 ul of transfection buffer suplemented with 0.625 mg/ml Herring sperm DNA at 300 V and 950 uF using the IBI GENEZAPPER (IBI). The transfected cells were incubated in CHO media [10 % fetal calf serum, 100 U/ml pennicilin-streptomycin, 2 mM glutamine, 1/500 hypoxanthine-thymidine (ATCC), 90% IMDM media (JRH BIOSClENCES, Lenexa, Kans.), 0.7 mg/ml G418 (GIBCO)] in 5% CO2 at 37° C. until colonies were visible. Each colony was separated and propagated. The cell clone with the highest number of human NK1R was selected for subsequent applications such as drug screening.
The binding assay of human NK1R expressed in either COS or CHO cells is based on the use of ^125I-substance P (^125I-SP, from DU PONT, Boston, Mass.) as a radioactively labeled ligand which competes with unlabeled substance P or any other ligand for binding to the human NK1R. Monolayer cell cultures of COS or CHO were dissociated by the non-enzymatic solution (SPECIALTY MEDIA, Lavallette, N.J.) and resuspended in appropriate volume of the binding buffer (50 mM Tris pH 7.5, 5 mM MnCl2, 150 mM NaCl, 0.04 mg/ml bacitracin, 0.004 mg/ml leupeptin, 0.2 mg/ml BSA, 0.01 mM phosphoramidon) such that 200 ul of the cell suspension would give rise to about 10,000 cpm of specific ^125I-SP binding (approximately 50,000 to 200,000 cells). […] The bound radioactivity was separated from unbound radioactivity by GF/C filter (BRANDEL, Gaithersburg, Md.) which was pre-wetted with 0.1 % polyethylenimine. The filter was washed with 3 ml of wash buffer (50 mM Tris pH 7.5, 5 mM MnCl2, 150 mM NaCl) three times and its radioactivity was determined by gamma counter.

[2] = oxidative metabolism in liver microsomes from humans; type: in vitro ADME; conditions: human liver microsomes, 15 min incubation
Protocol: All liver microsomal and cytosolic fractions were prepared using the following procedure. Thawed livers were homogenized with 2 volumes of 50 mM Tris-buffer (pH 7.5) containing 1.15% KCl. For microsomal and cytosolic preparations, the homogenate was centrifuged for 20 min at 9,000×g and the resulting supernatant was centrifuged for 60 min at 105,000×g. The resulting cytosolic fractions were re-centrifuged at 105,000×g for 60 min. Fractions of cytosol were aliquoted into small tubes and stored at −70° C. Subsequently, the microsomal pellets were washed with 10 mM EDTA containing 1.15% KCl and were centrifuged at 105,000×g for 60 min. Washed microsomes were resuspended in 10 mM potassium phosphate buffer (pH 7.4) containing 250 mM sucrose, aliquoted into small tubes, and stored at −70° C. Protein concentrations were determined by a modified Lowry assay (Smith et al., 1985). The specific cytochrome P450 content in each microsomal preparation was measured as described by Omura and Sato, J. Biol. Chem. 239, 2370-2378 (1964). […]
Method A was conducted on a Shimadzu HPLC system (Shimadzu Scientific Instruments Inc., Columbia Md.). The parent compounds and their metabolites were monitored directly using a radiometric detector (INUS Systems Inc. Tampa, Fla.) and Ultima-Flow M (Packard Instrument Co., Meridan Conn.) as scintillant at a flow rate of 3 mL/min. […]

T1 sequence (P25103 whole entry): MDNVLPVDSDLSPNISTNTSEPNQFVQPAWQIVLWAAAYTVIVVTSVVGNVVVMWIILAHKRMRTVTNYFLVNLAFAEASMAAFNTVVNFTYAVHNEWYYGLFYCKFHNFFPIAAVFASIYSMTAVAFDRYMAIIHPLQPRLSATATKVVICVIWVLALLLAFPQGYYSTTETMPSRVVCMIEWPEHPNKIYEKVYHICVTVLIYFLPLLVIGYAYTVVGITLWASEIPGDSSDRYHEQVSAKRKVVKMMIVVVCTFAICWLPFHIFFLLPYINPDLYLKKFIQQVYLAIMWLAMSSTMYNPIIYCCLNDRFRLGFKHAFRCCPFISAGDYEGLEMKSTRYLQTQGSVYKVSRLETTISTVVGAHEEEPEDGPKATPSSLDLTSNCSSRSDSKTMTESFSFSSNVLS

## C[C@@H](O[C@H]1OCCN[C@H]1c1ccc(F)cc1)c1cc(C(F)(F)F)cc(C(F)(F)F)c1 [Metabolite M-1, (2R,3S)-2-[(1R)-1-[3,5-bis(trifluoromethyl)phenyl]ethoxy]-3-(4-fluorophenyl)morpholine]
[1]
  IC50: 1 nM
[2]
  parent compound remained after incubation: ~50%
